How the values were obtained:
[1] = tested on: HL-60 myeloid leukemia cell line; conditions: in P123 Pluronic micelles; for cell growth inhibition compared with vehicle: HL-60, up to 0.24 μM, 3 days
Description: The in vitro anti-leukemic activity of both chelates using the HL-60 myeloid leukemia cell line was compared. […] The DETC/metal chelates were initially dissolved in dimethylsulfoxide (DMSO). This 2 mM DETC/metal stock in DMSO was then mixed with a polymer stock and micellization was allowed to occur at room temperature. The final polymer concentration was 2% by weight. […] DETC/metal chelates were added at concentrations of up to 0.24 μM. Cell growth was assessed after 3 days using the MTS assay.

HL-60 cells [2] = experiment: Leukemia cell growth in vivo, HL-60 flank tumors in mice; parameters: species or system NOD/SCID IL2Rγ^null mice
From the text: In another preliminary experiment, the effect of DETC/metal chelates on leukemia cell growth in vivo was studied. NOD/SCID IL2Rγ^null mice were implanted bilaterally in the flanks with 19×10^6 HL-60 cells. […] The experiment was terminated on day 15. At that point 3 out of 4 control animals had died and the one remaining alive had tumor volumes that had exceeded 10% of initial body weight. None of the animals treated with DETC/Cu died.

HL-60 cells [3] = conditions: HL-60, 0.32 μM, 24 hours, average and SEM of 3 experiments; controls 7±1%
Description: HL-60 cells were treated with DETC/Cu^2+ at a concentration of 0.32 μM for 24 hours upon which the number of apoptotic cells was determined using propidium iodide (PI) staining and flow cytometry. Analysis for the presence of apoptotic cells was modeled using the ModFit software.

[4] = tested on: colon cancer cell line DLD-1; conditions: read-out: 50% growth inhibitory concentration (IC50); DLD-1, two days, in P123 micelles
Description: (§1) The effect of DETC/Cu^2+ chelates on the growth of 3 solid tumor cell lines in vitro was studied. The cell lines studied were the colon cancer cell line DLD-1, the prostate cancer cell line PPC-1 and the hepatoma cell line Hep-3B. […] Cells in logarithmic growth phase were cultured in RPMI1640/10% FBS media at a concentration of 120,000 cells/mL. DETC/Cu^2+ was added to the cells at concentrations ranging from 0 to 1 μM. […] Two days after drug addition, cell growth was assayed using the CellTiter 96 assay from Promega (Madison, Wis.) using the manufacturer's protocol.

[5] = tested on: prostate cancer cell line PPC-1; conditions: read-out: 50% growth inhibitory concentration (IC50); PPC-1, two days, in P123 micelles
Description: as §1

[6] = tested on: hepatoma cell line Hep-3B; conditions: read-out: 50% growth inhibitory concentration (IC50), two days, in P123 micelles
Description: as §1

Row | SMILES | cell growth inhibition compared with vehicle [1] | toxicity (HL-60 cells [2]; 2 μmol/kg intravenously every other day, in P123 micelles) | tumor volume, tumor growth (HL-60 cells [2]; after 12 days of therapy, 2 μmol/kg i.v. every other day, versus P123 micelle controls) | animals that died (HL-60 cells [2]; day 15, 4 mice per group, 3 out of 4 controls died) | relative potency of growth inhibition ([1]; HL-60, 3 days) | apoptotic cells (HL-60 cells [3]) | IC50 [4] | IC50 [5] | IC50 [6]
1 | CCN(CC)C(=S)[S-].[Ag+] [DETC/Ag^+, silver salt of diethyldithiocarbamate] | growth inhibition to a much greater extent |  |  |  |  |  |  |  | 
2 | CCN(CC)C(=S)[S-].CCN(CC)C(=S)[S-].[Cu+2] [DETC/Cu^2+, copper salt of diethyldithiocarbamate] | growth inhibition to a much greater extent | No obvious toxicity | delay in tumor growth | None | more potent than the DETC/Ag^+ chelate | 16±2% | 370 nM | 180 nM | 130 nM

Reference: patent US20110206756A1, “DITHI[…] CHELATES AND METHODS OF MAKING AND USING THEREOF” (UNIVERSITY OF UTAH RESEARCH FOUNDATION, priority 2008, published 2011)
